The target of assay [1] is Serine/threonine-protein kinase MARK2 (Homo sapiens) (UniProt Q7KZI7). Briefly: Selectivity interaction (Kinase panel (Z-LYTE Assay)) EUB0001632a MARK2. To be noted: at 10 µM.
In assay [2] the target is Mitogen-activated protein kinase 1 (Homo sapiens, UniProt P28482). Briefly: Selectivity interaction (KinomeScan (DiscoverX)) EUB0000607a MAPK1. Conditions: at 10 µM.
Assay [3] concerns the target Ribosomal protein S6 kinase alpha-4 (Homo sapiens) (UniProt O75676). Briefly: Selectivity interaction (KinomeScan (DiscoverX)) EUB0000229b RPS6KA4. Conditions: at 10 µM.
The target of assay [4] is Activin receptor type-2A (Homo sapiens) (UniProt P27037). Briefly: Selectivity interaction (KinomeScan (DiscoverX)) EUB0000655a ACVR2A. Conditions: at 10 µM.
Activin receptor type-2A (Homo sapiens), sequence (P27037 whole entry): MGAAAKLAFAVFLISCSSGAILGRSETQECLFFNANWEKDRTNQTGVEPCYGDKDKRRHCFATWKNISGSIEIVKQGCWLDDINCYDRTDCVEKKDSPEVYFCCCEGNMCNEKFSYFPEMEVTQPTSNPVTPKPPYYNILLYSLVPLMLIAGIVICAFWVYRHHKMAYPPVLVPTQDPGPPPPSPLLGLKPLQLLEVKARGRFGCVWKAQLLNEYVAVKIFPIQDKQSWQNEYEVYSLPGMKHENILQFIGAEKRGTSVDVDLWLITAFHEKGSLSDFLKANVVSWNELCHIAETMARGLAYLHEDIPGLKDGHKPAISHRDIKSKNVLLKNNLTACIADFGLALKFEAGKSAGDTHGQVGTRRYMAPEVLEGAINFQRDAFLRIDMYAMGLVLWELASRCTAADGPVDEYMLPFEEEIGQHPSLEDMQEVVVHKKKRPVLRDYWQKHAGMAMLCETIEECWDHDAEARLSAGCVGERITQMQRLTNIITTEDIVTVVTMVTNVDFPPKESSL
For assay [5], the target named is MAP/microtubule affinity-regulating kinase 3 (Homo sapiens) (UniProt P27448). Briefly: Selectivity interaction (KinomeScan (DiscoverX)) EUB0000655a MARK3. Conditions: at 10 µM.
MAP/microtubule affinity-regulating kinase 3 (Homo sapiens), sequence (P27448 whole entry, looked up): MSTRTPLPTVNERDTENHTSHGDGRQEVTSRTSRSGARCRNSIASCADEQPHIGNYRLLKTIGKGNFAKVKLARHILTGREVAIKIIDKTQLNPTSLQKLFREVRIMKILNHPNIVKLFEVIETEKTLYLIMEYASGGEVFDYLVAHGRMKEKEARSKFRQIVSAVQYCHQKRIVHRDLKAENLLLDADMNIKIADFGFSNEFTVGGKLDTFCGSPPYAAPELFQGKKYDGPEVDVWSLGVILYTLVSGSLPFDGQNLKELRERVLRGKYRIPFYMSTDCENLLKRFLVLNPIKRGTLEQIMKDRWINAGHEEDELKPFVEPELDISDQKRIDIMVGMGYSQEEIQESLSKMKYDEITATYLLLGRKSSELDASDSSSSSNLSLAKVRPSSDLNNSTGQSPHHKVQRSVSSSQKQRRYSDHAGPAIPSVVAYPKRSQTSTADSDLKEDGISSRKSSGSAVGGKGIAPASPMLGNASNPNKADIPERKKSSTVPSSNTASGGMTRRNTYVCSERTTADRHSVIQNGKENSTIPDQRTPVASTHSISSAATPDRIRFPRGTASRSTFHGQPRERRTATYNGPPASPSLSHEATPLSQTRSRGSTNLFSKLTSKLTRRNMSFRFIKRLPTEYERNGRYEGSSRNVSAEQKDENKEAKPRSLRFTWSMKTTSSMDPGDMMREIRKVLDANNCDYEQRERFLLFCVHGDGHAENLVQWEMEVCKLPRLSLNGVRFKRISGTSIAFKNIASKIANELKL
For assay [6], the target named is T1, Cytoplasmic tyrosine-protein kinase BMX (Homo sapiens) (UniProt P51813).
T1 sequence (whole entry): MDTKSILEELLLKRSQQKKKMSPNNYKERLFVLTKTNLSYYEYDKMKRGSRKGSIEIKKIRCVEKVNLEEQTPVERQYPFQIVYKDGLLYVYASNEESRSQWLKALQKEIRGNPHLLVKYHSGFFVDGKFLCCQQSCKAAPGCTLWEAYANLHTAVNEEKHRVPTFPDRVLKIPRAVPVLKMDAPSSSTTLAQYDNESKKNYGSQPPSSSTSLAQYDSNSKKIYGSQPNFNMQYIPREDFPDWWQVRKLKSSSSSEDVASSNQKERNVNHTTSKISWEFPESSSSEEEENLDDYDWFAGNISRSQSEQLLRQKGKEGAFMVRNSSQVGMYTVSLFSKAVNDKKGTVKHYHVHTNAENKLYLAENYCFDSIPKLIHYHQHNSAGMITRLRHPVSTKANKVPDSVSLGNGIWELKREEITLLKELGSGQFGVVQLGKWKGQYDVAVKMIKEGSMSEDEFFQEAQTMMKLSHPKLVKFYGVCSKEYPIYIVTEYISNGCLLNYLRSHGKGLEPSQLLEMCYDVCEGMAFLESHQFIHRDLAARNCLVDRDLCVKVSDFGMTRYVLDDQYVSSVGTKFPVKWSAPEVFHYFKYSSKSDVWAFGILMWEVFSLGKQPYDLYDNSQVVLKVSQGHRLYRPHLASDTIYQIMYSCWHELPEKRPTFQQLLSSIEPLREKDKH
The assay can be described thus: Selectivity interaction (KinomeScan (DiscoverX)) EUB0000655a BMX. Conditions: at 10 µM.

The target of assay [7] is 5'-AMP-activated protein kinase catalytic subunit alpha-1 (Homo sapiens, UniProt Q13131). The assay can be described thus: Selectivity interaction (ActivX KiNativ screen (ex vivo kinase selectivity in human PBMCs)) EUB0001619a PRKAA1. Type of assay: cell-based. Conditions: PBMC, at 1 µM.
5'-AMP-activated protein kinase catalytic subunit alpha-1, sequence (Q13131 whole entry, looked up): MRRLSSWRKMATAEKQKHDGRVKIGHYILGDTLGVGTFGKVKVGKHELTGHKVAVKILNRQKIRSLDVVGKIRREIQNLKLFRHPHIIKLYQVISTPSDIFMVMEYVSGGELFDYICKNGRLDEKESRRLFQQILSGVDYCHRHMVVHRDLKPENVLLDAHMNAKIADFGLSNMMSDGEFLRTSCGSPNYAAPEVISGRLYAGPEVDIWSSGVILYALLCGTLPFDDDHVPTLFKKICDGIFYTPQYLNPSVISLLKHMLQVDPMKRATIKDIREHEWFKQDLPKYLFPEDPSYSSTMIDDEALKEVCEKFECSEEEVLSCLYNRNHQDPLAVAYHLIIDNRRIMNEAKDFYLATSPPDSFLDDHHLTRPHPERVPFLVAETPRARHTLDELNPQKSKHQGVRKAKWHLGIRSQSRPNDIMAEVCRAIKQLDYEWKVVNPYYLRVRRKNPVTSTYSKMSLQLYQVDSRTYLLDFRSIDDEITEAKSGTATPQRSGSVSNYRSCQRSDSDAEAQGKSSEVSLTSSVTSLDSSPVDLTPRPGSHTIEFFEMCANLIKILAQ
The target of assay [8] is Ribosomal protein S6 kinase alpha-3 (Homo sapiens, UniProt P51812). Briefly: Selectivity interaction (KinomeScan (DiscoverX)) EUB0001619a RPS6KA3. To be noted: at 1 µM.
For assay [9], the target named is Tyrosine-protein kinase HCK (Homo sapiens) (UniProt P08631). Briefly: Selectivity interaction (ActivX KiNativ screen (ex vivo kinase selectivity in human PBMCs)) EUB0001619a HCK. To be noted: PBMC, at 1 µM. Type of assay: cell-based.
Tyrosine-protein kinase HCK (Homo sapiens), sequence (P08631 2-526 limits assumed): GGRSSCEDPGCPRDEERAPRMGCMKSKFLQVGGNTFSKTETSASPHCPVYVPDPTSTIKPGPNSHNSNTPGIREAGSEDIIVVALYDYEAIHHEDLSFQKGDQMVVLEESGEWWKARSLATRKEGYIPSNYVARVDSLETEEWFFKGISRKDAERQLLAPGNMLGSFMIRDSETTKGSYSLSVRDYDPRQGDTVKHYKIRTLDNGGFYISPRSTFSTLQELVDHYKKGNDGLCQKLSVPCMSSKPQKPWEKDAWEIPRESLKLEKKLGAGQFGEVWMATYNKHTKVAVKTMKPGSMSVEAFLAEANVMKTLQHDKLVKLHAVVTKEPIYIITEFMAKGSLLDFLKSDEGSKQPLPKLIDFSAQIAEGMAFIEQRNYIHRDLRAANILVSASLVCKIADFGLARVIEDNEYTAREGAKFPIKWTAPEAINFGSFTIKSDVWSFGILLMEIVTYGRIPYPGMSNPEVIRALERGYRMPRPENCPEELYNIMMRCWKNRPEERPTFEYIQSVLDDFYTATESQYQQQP
The target in assay [10] is Serine/threonine-protein kinase 38-like (Homo sapiens) (UniProt Q9Y2H1). The assay can be described thus: Selectivity interaction (ActivX KiNativ screen (kinase selectivity in THP-1 cell lysates)) EUB0000639a STK38L. Type of assay: subcellular. To be noted: lysate, at 0.01 µM.
Serine/threonine-protein kinase 38-like (Homo sapiens), sequence (Q9Y2H1 2-464 limits assumed): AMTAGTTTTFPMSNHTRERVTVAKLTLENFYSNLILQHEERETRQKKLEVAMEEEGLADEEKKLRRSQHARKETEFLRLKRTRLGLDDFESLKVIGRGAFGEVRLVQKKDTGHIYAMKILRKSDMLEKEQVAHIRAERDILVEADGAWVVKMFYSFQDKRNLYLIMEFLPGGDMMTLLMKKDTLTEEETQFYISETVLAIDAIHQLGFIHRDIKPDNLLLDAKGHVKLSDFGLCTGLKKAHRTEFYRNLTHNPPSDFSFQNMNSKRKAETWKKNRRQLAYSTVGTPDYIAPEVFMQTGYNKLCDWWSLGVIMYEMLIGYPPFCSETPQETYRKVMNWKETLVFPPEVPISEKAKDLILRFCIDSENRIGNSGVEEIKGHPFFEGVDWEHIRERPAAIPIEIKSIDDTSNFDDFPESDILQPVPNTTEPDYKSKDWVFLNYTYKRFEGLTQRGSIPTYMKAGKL
For assay [11], the target named is T2, Serine/threonine-protein kinase D3 (Homo sapiens) (UniProt O94806).
T2 sequence (whole entry): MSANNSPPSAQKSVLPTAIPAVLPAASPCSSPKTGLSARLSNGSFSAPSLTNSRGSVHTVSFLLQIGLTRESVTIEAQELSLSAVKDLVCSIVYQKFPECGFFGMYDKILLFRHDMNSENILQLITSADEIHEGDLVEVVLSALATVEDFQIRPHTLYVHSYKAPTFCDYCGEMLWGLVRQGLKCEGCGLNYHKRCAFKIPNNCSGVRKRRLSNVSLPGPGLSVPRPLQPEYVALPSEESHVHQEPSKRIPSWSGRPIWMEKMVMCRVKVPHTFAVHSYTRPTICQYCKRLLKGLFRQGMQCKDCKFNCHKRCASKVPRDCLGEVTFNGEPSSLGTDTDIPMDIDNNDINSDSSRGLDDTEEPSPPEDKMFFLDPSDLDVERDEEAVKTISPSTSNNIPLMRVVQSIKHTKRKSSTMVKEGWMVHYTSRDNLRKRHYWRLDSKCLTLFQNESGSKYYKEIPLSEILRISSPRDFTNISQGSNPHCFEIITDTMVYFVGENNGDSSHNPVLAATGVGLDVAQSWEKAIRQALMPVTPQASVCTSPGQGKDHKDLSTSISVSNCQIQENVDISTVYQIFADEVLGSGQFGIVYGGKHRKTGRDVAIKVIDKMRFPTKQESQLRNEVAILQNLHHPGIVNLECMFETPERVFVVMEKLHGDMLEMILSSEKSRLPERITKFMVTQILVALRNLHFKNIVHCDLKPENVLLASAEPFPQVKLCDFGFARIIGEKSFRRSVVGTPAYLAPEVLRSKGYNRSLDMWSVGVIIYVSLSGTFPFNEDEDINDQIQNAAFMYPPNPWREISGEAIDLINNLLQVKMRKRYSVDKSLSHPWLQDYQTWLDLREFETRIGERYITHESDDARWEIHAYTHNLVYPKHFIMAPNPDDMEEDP
The assay can be described thus: Selectivity interaction (ActivX KiNativ screen (kinase selectivity in THP-1 cell lysates)) EUB0000639a PRKD3. Type of assay: subcellular. To be noted: lysate, at 0.2 µM.

Assay [12] deals with T3, Serine/threonine-protein kinase RIO1 (Homo sapiens) (UniProt Q9BRS2).
T3 sequence (whole entry): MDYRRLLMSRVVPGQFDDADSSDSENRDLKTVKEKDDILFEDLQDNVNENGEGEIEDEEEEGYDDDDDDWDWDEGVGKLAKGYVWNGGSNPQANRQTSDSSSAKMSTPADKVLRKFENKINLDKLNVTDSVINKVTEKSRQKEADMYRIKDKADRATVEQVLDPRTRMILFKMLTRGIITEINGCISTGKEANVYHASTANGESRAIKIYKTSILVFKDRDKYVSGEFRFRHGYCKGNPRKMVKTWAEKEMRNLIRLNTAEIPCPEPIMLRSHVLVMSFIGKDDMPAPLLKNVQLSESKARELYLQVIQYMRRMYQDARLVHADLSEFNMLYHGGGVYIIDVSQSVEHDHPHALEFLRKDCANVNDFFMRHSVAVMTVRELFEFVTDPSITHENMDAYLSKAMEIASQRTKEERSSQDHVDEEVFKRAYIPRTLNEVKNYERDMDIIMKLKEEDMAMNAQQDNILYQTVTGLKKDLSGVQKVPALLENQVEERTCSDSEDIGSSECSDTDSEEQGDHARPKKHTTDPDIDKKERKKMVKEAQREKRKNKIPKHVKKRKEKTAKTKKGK
The assay can be described thus: Selectivity interaction (KinomeScan (DiscoverX)) EUB0000092b RIOK1. To be noted: at 10 µM.

Serine/threonine-protein kinase MARK2 (Homo sapiens), sequence (Q7KZI7 whole entry): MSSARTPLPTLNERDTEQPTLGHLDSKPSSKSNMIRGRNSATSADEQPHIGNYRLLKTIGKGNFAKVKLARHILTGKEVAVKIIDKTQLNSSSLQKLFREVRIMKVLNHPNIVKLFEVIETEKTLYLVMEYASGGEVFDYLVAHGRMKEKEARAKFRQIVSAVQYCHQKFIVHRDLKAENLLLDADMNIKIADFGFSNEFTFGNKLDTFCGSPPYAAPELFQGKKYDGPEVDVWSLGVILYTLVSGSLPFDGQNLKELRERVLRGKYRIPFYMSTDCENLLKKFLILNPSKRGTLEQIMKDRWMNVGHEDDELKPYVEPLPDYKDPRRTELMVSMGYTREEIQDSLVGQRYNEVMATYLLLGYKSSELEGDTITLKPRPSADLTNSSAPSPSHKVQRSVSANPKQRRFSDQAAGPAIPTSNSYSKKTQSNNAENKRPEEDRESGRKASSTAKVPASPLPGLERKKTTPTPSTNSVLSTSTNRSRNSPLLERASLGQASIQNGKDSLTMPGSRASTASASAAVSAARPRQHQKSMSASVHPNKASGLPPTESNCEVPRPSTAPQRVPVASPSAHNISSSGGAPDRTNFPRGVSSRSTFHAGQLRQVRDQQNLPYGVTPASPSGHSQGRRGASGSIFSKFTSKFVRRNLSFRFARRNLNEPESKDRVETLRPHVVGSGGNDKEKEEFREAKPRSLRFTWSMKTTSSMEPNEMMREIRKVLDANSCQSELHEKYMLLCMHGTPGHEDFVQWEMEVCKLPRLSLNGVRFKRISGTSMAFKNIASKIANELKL
Mitogen-activated protein kinase 1, sequence (P28482 whole entry): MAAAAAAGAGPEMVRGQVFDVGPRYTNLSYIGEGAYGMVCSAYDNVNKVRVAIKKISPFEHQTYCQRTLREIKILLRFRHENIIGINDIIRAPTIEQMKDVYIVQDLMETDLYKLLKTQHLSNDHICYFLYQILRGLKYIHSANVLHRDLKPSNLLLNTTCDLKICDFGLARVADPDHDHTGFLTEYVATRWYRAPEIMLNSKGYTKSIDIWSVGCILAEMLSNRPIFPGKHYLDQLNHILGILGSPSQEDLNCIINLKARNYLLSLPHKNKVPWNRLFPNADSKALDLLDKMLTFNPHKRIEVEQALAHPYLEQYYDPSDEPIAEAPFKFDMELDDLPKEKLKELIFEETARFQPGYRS
Ribosomal protein S6 kinase alpha-4 (Homo sapiens), sequence (O75676 whole entry, looked up): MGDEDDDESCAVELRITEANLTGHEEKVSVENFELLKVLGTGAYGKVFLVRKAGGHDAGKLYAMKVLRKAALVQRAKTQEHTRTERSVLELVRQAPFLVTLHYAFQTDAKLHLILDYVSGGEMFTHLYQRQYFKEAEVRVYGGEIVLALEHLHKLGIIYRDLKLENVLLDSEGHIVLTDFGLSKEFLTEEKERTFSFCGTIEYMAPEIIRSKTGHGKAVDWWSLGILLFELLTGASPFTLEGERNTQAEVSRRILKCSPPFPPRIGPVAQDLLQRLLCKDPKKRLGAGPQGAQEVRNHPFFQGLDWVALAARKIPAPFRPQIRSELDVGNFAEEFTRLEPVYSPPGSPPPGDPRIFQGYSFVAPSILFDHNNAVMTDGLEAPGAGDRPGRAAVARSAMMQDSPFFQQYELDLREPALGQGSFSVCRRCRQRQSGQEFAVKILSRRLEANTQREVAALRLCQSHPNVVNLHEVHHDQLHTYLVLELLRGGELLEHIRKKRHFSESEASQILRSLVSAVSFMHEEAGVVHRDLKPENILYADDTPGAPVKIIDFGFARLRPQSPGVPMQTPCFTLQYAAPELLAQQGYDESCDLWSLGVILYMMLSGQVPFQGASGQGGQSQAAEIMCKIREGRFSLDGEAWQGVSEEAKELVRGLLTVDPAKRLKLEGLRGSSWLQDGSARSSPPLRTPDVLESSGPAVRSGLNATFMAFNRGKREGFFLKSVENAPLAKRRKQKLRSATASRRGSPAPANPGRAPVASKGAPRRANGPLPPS

Take `Cn1cc(-n2cnc3c(NCc4nc5cc(Cl)c(Cl)cc5[nH]4)nc(N4CCOCC4)nc32)cn1`: in [1], the % of control is 5.56%.
For `CNC(=O)Nc1ccc(-c2nc(N3CC4CCC(C3)O4)c3cnn(C4CCC5(CC4)OCCO5)c3n2)cc1`, the % of control in [2] is 87%.
On to `COc1cc(N(C)c2ccnc3ccc(C(F)(F)F)cc23)cc(OC)c1OC`, for which, in assay [3], the % binding was 72%.
On to `CN(C)CCOc1ccc(-c2nc(-c3ccncc3)c(-c3ccc4c(c3)CC/C4=N\O)[nH]2)cc1`, for which the % of control is 100% in assay [4], 95% in assay [5] and 81% in assay [6].
`N#Cc1cccc(-c2c[nH]c3ncnc(N4CCOCC4)c23)c1`: the % of inhibition amounted to 27% in assay [7] and 21% in assay [9]. In assay [8], this compound yielded a % of control of 38%.
`CC[C@@H]1[C@H](F)C(=O)N[C@@H]1COc1nccc2cc(C(N)=O)c(OC)cc12` [ZIMLOVISERTIB]: the % of inhibition in [10] is 2.6%; in [11] it was -4.6%.
In assay [12], `CCC(=O)N1CCN(c2ccc(-n3c(=O)ccc4cnc5ccc(-c6cnc7ccccc7c6)cc5c43)cc2C(F)(F)F)CC1` yielded a % of control of 81%.

Source of the values: ChEMBL document CHEMBL5465560, “Selectivity Literature for EUbOPEN Chemogenomic Library” (2024).
